These are literature values, as cited in PMC9460038, “Antigiardial Activity of Foeniculum vulgare Hexane Extract and Some of Its Constituents” (Plants, 2022).

The test system of this data set is multidrug resistant (MDR) clinical isolates of Mycobacterium tuberculosis. The note with it: three MDR clinical isolates; cited from earlier work.

Regarding `CCCCCC/C=C/C=C/C=O` [Trans, trans-2,4-undecadienal, trans, trans-2,4-undecadienal], the MIC (in general, the least concentration at which growth counts as inhibited) was 25 to 50 µg/mL.
